According to patent publication US10799600B1, “Targeted nanoparticles” (nanoDERM Sciences, Inc., priority 2010, dated 2020):

Legend:
[1] = tested on: multi-drug resistant (and expanded-spectrum beta-lactamase resistant) Acinetobacter baumannii (BAA-1605); test: Clearing zone test on tryptic soy agar against multi-drug resistant Acinetobacter baumannii; type: cell-based; conditions: for resistance / sensitivity to control antibiotics: clinically relevant dose 10 μg/ml, A. baumannii
Procedure: (§1) FIG. 7 nanogels conjugated with polymyxin B (PmxnB) or vancomycin (VCM) and/or loaded with 5 mg/nil penicillin/streptomycin (Pen/Strep), and tested on tryptic soy agar for activity against multi-drug resistant (and expanded-spectrum beta-lactamase resistant) Acinetobacter baumannii (BAA-1605). (1) unmodified particle, Pen/Strep loaded; (2) unmodified particle; (3) Pen-Strep loaded and conjugated with PmxnB; (4) conjugated with PmxnB; (5) conjugated with VCM, Pen-Strep loaded; (6) conjugated with VCM; (7) conjugated with PmxnB/AMCA, Pen/Strep loaded; (8) conjugated with PmxnB/AMCA (fluorescent agent); (9) conjugated with VCM/AMCA, Pen/Strep loaded; (10) conjugated with VCM/AMCA; (11) PmxnB at 5 mg/ml; (12) VCM at 5 mg/ml; (13) Pen/Strep at 5 mg/ml; (14) PmxnB at 100 μg/ml; (15) VCM at 100 μg/ml; (16) Pen/Strep at 100 μg/ml; (17) PmxnB at 10 μg/ml; (18) VCM at 10 μg/ml; (19) Pen/Strep at 10 μg/ml.
(§2) Acinetobacter baumannii (a) treated with the hydrogel conjugated with polymyxin B (PMB) produced a clearing zone of ˜15 mm in diameter. […] Methicillin-resistant S. aureus (MRSA) (b) treated with VCM-conjugated particles produced a clearing zone of ˜15 mm in diameter.
(§3) The concept for targeted killing of bacterial pathogens with the hydrogels of the invention is illustrated in FIG. 1.

[2] = tested on: multi-drug resistant (MRSA) Staphylococcus aureus (NRS-385); test: Clearing zone test on tryptic soy agar against MRSA; type: cell-based; conditions: for resistance / sensitivity to control antibiotics: clinically relevant dose 10 μg/ml
Procedure: as §1, with “FIG. 8 nanogels conjugated” for “FIG. 7 nanogels conjugated”, “with 5 mg/ml penicillin/streptomycin (Pen/Strep),” for “with 5 mg/nil penicillin/streptomycin (Pen/Strep),”, “multi-drug resistant (MRSA) Staphylococcus aureus (NRS-385). (1) unmodified” for “multi-drug resistant (and expanded-spectrum beta-lactamase resistant) Acinetobacter baumannii (BAA-1605). (1) unmodified”, “at 5 mg/nil; (14) PmxnB” for “at 5 mg/ml; (14) PmxnB”
as §2, §3

Row | Compound | resistance / sensitivity to control antibiotics [1] | inhibition (clearing zone) ([1]; free control antibiotics (10 μg/ml), MDR A. baumannii) | resistance / sensitivity to control antibiotics [2] | clearing zone ([2]; free antibiotic 10 μg/ml) [mm] | clearing zone ([1]; free antibiotic 10 μg/ml, MDR A. baumannii) [mm] | inhibition (clearing zone) ([2]; free control antibiotics at 10 μg/ml)
1 | CN[C@H](CC(C)C)C(=O)N[C@H]1C(=O)N[C@@H](CC(N)=O)C(=O)N[C@H]2C(=O)N[C@H]3C(=O)N[C@H](C(=O)N[C@H](C(=O)O)c4cc(O)cc(O)c4-c4cc3ccc4O)[C@H](O)c3ccc(c(Cl)c3)Oc3cc2cc(c3O[C@@H]2O[C@H](CO)[C@@H](O)[C@H](O)[C@H]2O[C@H]2C[C@](C)(N)[C@H](O)[C@H](C)O2)Oc2ccc(cc2Cl)[C@H]1O [Free VCM, Vancomycin] | resistant | no inhibition | sensitive | ~6 |  | 
2 | polymyxin B [Free PMB] | sensitive |  | resistant |  | ~6 | no inhibition
